# Values joined by “and” are separate entries in the source; they are usually repeats but may differ in a detail not shown here. Equal entries are not always repeated. Where two headings read alike, the source gives them in different places.
# Legend:
# Type in all cases: cell-based, human
# [1] = tested on: senescent IMR90 ER:RAS cells (4-OHT-induced); assay: Nuclei count (Hoechst, high content imaging) senolytic assay, oncogene-induced senescence (OIS) model, senescent cells
# Procedure, shortened: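 Cells seeded, left 24 h, then dosed across a 10-point […] series (10 μM down to 10 nM) with DMSO control. After 72 h, wells were fixed, permeabilised and stained with Hoechst. Nuclei were counted by high-content imaging in senescent and non-senescent IMR90 ER:RAS cultures.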
# [2] = tested on: non-senescent control A549 cells; assay: Nuclei count senolytic assay, TIS model, non-senescent control cells; settings: for % Cell Survival: control cells, single replicate
# Procedure, shortened: (§1)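 Senescence in A549 cells is induced by 48 h of 100 μM etoposide followed by three days without drug, alongside non-senescent controls. Cells are seeded, rested 24 h, then exposed 72 h to compounds (10 nM–10 μM final, […] steps, triplicate) before nuclei are counted by imaging.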
# [3] = tested on: senescent A549 cells (etoposide-induced); assay: Nuclei count senolytic assay, therapy-induced senescence (TIS) model, senescent cells; settings: for % Cell Survival: senescence cells, single replicate
# Procedure, shortened: as §1
compound,measurement,setting,value
"CO[C@H]1C[C@H](O[C@H]2CC[C@@]3(C)[C@H](CC[C@@H]4[C@@H]3CC[C@]3(C)[C@@H](C5=CC(=O)OC5)[C@@H](OC(C)=O)C[C@]43O)C2)O[C@@H](C)[C@@H]1O [Oleandrin, oleandrin]",viability at 10 µM,"[1]; Homo sapiens, IMR-90, 72 h, Senescent, log (dose) [M] -5, 72 h, mean n=3 (Fig 3C), read-out: Mean % Cell Survival",2.6%
same,viability at 4.677 µM,"[1]; Homo sapiens, IMR-90, 72 h, Senescent, log (dose) [M] -5.33, 72 h, mean n=3 (Fig 3C), read-out: Mean % Cell Survival",4.06%
same,viability at 2.188 µM,"[1]; Homo sapiens, IMR-90, 72 h, Senescent, log (dose) [M] -5.66, 72 h, mean n=3 (Fig 3C), read-out: Mean % Cell Survival",5.74%
same,viability at 1 µM,"[1]; Homo sapiens, IMR-90, 72 h, Senescent, log (dose) [M] -6, 72 h, mean n=3 (Fig 3C), read-out: Mean % Cell Survival",4.49%
same,viability at 0.4677 µM,"[1]; Homo sapiens, IMR-90, 72 h, Senescent, log (dose) [M] -6.33, 72 h, mean n=3 (Fig 3C), read-out: Mean % Cell Survival",5.02%
same,viability at 0.2188 µM,"[1]; Homo sapiens, IMR-90, 72 h, Senescent, log (dose) [M] -6.66, 72 h, mean n=3 (Fig 3C), read-out: Mean % Cell Survival",3.64%
same,viability at 0.1 µM,"[1]; Homo sapiens, IMR-90, 72 h, Senescent, log (dose) [M] -7, 72 h, mean n=3 (Fig 3C), read-out: Mean % Cell Survival",3.83%
same,viability at 0.04677 µM,"[1]; Homo sapiens, IMR-90, 72 h, Senescent, log (dose) [M] -7.33, 72 h, mean n=3 (Fig 3C), read-out: Mean % Cell Survival",6.59%
same,viability at 0.02188 µM,"[1]; Homo sapiens, IMR-90, 72 h, Senescent, log (dose) [M] -7.66, 72 h, mean n=3 (Fig 3C), read-out: Mean % Cell Survival",13.4%
same,viability at 0.01 µM,"[1]; Homo sapiens, IMR-90, 72 h, Senescent, log (dose) [M] -8, 72 h, mean n=3 (Fig 3C), read-out: Mean % Cell Survival",87.9%
same,viability at 10 µM,"[1]; Homo sapiens, IMR-90, senescence, log (dose) [M] -5, individual replicates (Fig 3D), read-out: % Cell Survival",3.12%
same,viability at 4.677 µM,"[1]; Homo sapiens, IMR-90, senescence, log (dose) [M] -5.33, individual replicates (Fig 3D), read-out: % Cell Survival",4.77%
same,viability at 2.188 µM,"[1]; Homo sapiens, IMR-90, senescence, log (dose) [M] -5.66, individual replicates (Fig 3D), read-out: % Cell Survival",7.52%
same,viability at 1 µM,"[1]; Homo sapiens, IMR-90, senescence, log (dose) [M] -6, individual replicates (Fig 3D), read-out: % Cell Survival",5.5%
same,viability at 0.4677 µM,"[1]; Homo sapiens, IMR-90, senescence, log (dose) [M] -6.33, individual replicates (Fig 3D), read-out: % Cell Survival",4.4%
same,viability at 0.2188 µM,"[1]; Homo sapiens, IMR-90, senescence, log (dose) [M] -6.66, individual replicates (Fig 3D), read-out: % Cell Survival",4.04%
same,viability at 0.1 µM,"[1]; Homo sapiens, IMR-90, senescence, log (dose) [M] -7, individual replicates (Fig 3D), read-out: % Cell Survival",4.95%
same,viability at 0.02188 µM,"[1]; Homo sapiens, IMR-90, senescence, log (dose) [M] -7.66, individual replicates (Fig 3D), read-out: % Cell Survival",12.3%
same,IC50,"[1]; Homo sapiens, IMR-90, OIS model, 4-OHT-induced IMR90 ER:RAS, nuclei count, 72 h",14 nM
same,dose showing the clearest / optimal senolytic effect,"[1]; OIS IMR90 ER:RAS, Hoechst nuclei count, marginal effect on normal cells",21.5 nM
same,senolytic activity (in words),"[1]; experimental screen, OIS IMR90 ER:RAS",clear senolytic action
same,senolytic index (SI),"[1]; ratio between the IC50 of control cells and the IC50 of senescent cells, OIS IMR90 ER:RAS",5.8
same,viability at 10 µM,"[2]; Homo sapiens, A549, log (dose) [M] -5, Control cells, mean, read-out: Mean % Cell Survival",1.02%
same,viability at 4.68 µM,"[2]; Homo sapiens, A549, log (dose) [M] -5.33, Control cells, mean, read-out: Mean % Cell Survival",1.71%
same,viability at 2.19 µM,"[2]; Homo sapiens, A549, log (dose) [M] -5.66, Control cells, mean, read-out: Mean % Cell Survival",1.34%
same,viability at 1 µM,"[2]; Homo sapiens, A549, log (dose) [M] -6, Control cells, mean, read-out: Mean % Cell Survival",1.19%
same,viability at 0.468 µM,"[2]; Homo sapiens, A549, log (dose) [M] -6.33, Control cells, mean, read-out: Mean % Cell Survival",1.55%
same,viability at 0.219 µM,"[2]; Homo sapiens, A549, log (dose) [M] -6.66, Control cells, mean, read-out: Mean % Cell Survival",2.98%
same,viability at 0.1 µM,"[2]; Homo sapiens, A549, log (dose) [M] -7, Control cells, mean, read-out: Mean % Cell Survival",6.37%
same,viability at 0.0468 µM,"[2]; Homo sapiens, A549, log (dose) [M] -7.33, Control cells, mean, read-out: Mean % Cell Survival",4.07%
same,viability at 0.0219 µM,"[2]; Homo sapiens, A549, log (dose) [M] -7.66, Control cells, mean, read-out: Mean % Cell Survival",25.8%
same,viability at 0.01 µM,"[2]; Homo sapiens, A549, log (dose) [M] -8, Control cells, mean, read-out: Mean % Cell Survival",34.2%
same,IC50,"[2]; Homo sapiens, TIS model, non-senescent A549, nuclei count, 72 h",19.5 nM
same,% Cell Survival,[2]; log (dose) [M] -5,0.2886% and 2.786% and 0%
same,% Cell Survival,[2]; log (dose) [M] -5.33,1.948% and 1.5% and 1.695%
same,% Cell Survival,[2]; log (dose) [M] -5.66,1.659% and 1.071% and 1.304%
same,% Cell Survival,[2]; log (dose) [M] -6,0% and 2.071% and 1.499%
same,% Cell Survival,[2]; log (dose) [M] -6.33,1.371% and 2.429% and 0.8475%
same,% Cell Survival,[2]; log (dose) [M] -6.66,4.113% and 2.929% and 1.89%
same,% Cell Survival,[2]; log (dose) [M] -7,5.267% and 9.857% and 3.977%
same,% Cell Survival,[2]; log (dose) [M] -7.33,0% and 0.07143% and 12.1252%
same,% Cell Survival,[2]; log (dose) [M] -7.66,49.3506% and 28.0313%
same,% Cell Survival,[2]; log (dose) [M] -8,102.742%
same,viability at 10 µM,"[3]; Homo sapiens, A549, log (dose) [M] -5, Senescent cells, mean, read-out: Mean % Cell Survival",0.749%
same,viability at 4.68 µM,"[3]; Homo sapiens, A549, log (dose) [M] -5.33, Senescent cells, mean, read-out: Mean % Cell Survival",1.57%
same,viability at 2.19 µM,"[3]; Homo sapiens, A549, log (dose) [M] -5.66, Senescent cells, mean, read-out: Mean % Cell Survival",1.08%
same,viability at 1 µM,"[3]; Homo sapiens, A549, log (dose) [M] -6, Senescent cells, mean, read-out: Mean % Cell Survival",1.7%
same,viability at 0.468 µM,"[3]; Homo sapiens, A549, log (dose) [M] -6.33, Senescent cells, mean, read-out: Mean % Cell Survival",1.38%
same,viability at 0.219 µM,"[3]; Homo sapiens, A549, log (dose) [M] -6.66, Senescent cells, mean, read-out: Mean % Cell Survival",2.19%
same,viability at 0.1 µM,"[3]; Homo sapiens, A549, log (dose) [M] -7, Senescent cells, mean, read-out: Mean % Cell Survival",3.51%
same,viability at 0.0468 µM,"[3]; Homo sapiens, A549, log (dose) [M] -7.33, Senescent cells, mean, read-out: Mean % Cell Survival",9.16%
same,viability at 0.0219 µM,"[3]; Homo sapiens, A549, log (dose) [M] -7.66, Senescent cells, mean, read-out: Mean % Cell Survival",3.39%
same,viability at 0.01 µM,"[3]; Homo sapiens, A549, log (dose) [M] -8, Senescent cells, mean, read-out: Mean % Cell Survival",26.8%
same,IC50,"[3]; Homo sapiens, TIS model, etoposide-induced senescent A549, nuclei count, 72 h",5.4 nM
same,concentration at which a senolytic effect was reached,"[3]; TIS A549, Hoechst labelling, marginal effect on normal cells",10 nM
same,senolytic action (in words),"[3]; experimental screen, TIS senescent A549",strong senolytic action
same,% Cell Survival,[3]; log (dose) [M] -5,1.111% and 0.1906% and 0.9453%
same,% Cell Survival,[3]; log (dose) [M] -5.33,1.898% and 1.858% and 0.9453%
same,% Cell Survival,[3]; log (dose) [M] -5.66,1.065% and 1.477% and 0.6965%
same,% Cell Survival,[3]; log (dose) [M] -6,2.222% and 1.477% and 1.393%
same,% Cell Survival,[3]; log (dose) [M] -6.33,1.806% and 1.286% and 1.045%
same,% Cell Survival,[3]; log (dose) [M] -6.66,2.083% and 3.383% and 1.095%
same,% Cell Survival,[3]; log (dose) [M] -7,3.194% and 5.908% and 1.443%
same,% Cell Survival,[3]; log (dose) [M] -7.33,3.7037% and 20.1525% and 3.632%
same,% Cell Survival,[3]; log (dose) [M] -7.66,6.2037% and 0.09528% and 3.8806%
same,% Cell Survival,[3]; log (dose) [M] -8,34.3519% and 21.3435% and 24.6766%

# Reference: paper PMC10257182, “Discovery of senolytics using machine learning” (Nature Communications, 2023)
